# PubChem BioAssay (NCI)
#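 A five-concentration, 48-hour dose response in 96-well plates underlies each endpoint, interpolated linearly between surrounding concentrations. TGI: total growth inhibition.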
# Legend:
# Experiment in all cases: inhibition of tumour cell growth, NCI panel, 48 h
# SF-268 CNS = test system: SF-268 CNS
# MOLT-4 leukemia = test system: MOLT-4 leukemia
# LOX IMVI melanoma = test system: LOX IMVI melanoma
# HOP-92 NSCLC = test system: HOP-92 NSCLC
# MALME-3M melanoma = test system: MALME-3M melanoma
# UACC-257 melanoma = test system: UACC-257 melanoma
# BT-549 breast = test system: BT-549 breast
# NCI/ADR-RES ovarian = test system: NCI/ADR-RES ovarian
# HT29 colon = test system: HT29 colon
# HCT-116 colon = test system: HCT-116 colon
# NCI-H226 lung = test system: NCI-H226 lung
# HCT-15 colon = test system: HCT-15 colon
# M14 melanoma = test system: M14 melanoma
# CCRF-CEM leukemia = test system: CCRF-CEM leukemia
# PC-3 prostate = test system: PC-3 prostate
# RPMI-8226 leukemia = test system: RPMI-8226 leukemia
# OVCAR-8 ovarian = test system: OVCAR-8 ovarian
# OVCAR-4 ovarian = test system: OVCAR-4 ovarian
# K-562 leukemia = test system: K-562 leukemia
# 786-0 renal = test system: 786-0 renal
# IGROV1 ovarian = test system: IGROV1 ovarian
# MDA-MB-435 = test system: MDA-MB-435
# TK-10 renal = test system: TK-10 renal
# HS 578T breast = test system: HS 578T breast
# OVCAR-5 ovarian = test system: OVCAR-5 ovarian
# OVCAR-3 ovarian = test system: OVCAR-3 ovarian
# DU-145 prostate = test system: DU-145 prostate
# U251 CNS = test system: U251 CNS
# NCI-H23 lung = test system: NCI-H23 lung
# SN12C renal = test system: SN12C renal
# ACHN renal = test system: ACHN renal
# SNB-75 CNS = test system: SNB-75 CNS
# MDA-N = test system: MDA-N
# NCI-H522 lung = test system: NCI-H522 lung
# NCI-H460 lung = test system: NCI-H460 lung
# HCC-2998 colon = test system: HCC-2998 colon
# KM12 colon = test system: KM12 colon
# A498 renal = test system: A498 renal
# UO-31 renal = test system: UO-31 renal
# HOP-62 NSCLC = test system: HOP-62 NSCLC
# SK-OV-3 ovarian = test system: SK-OV-3 ovarian
# SNB-19 CNS = test system: SNB-19 CNS
# EKVX NSCLC = test system: EKVX NSCLC
# A549 NSCLC = test system: A549 NSCLC
# CAKI-1 renal = test system: CAKI-1 renal
# MCF7 breast = test system: MCF7 breast
# SW-620 colon = test system: SW-620 colon
# SK-MEL-5 melanoma = test system: SK-MEL-5 melanoma
# SF-539 CNS = test system: SF-539 CNS
# SK-MEL-2 melanoma = test system: SK-MEL-2 melanoma
# UACC-62 melanoma = test system: UACC-62 melanoma
# HL-60(TB) leukemia = test system: HL-60(TB) leukemia
# SF-295 CNS = test system: SF-295 CNS
# MDA-MB-231 breast = test system: MDA-MB-231 breast
# RXF 393 renal = test system: RXF 393 renal
# COLO 205 colon = test system: COLO 205 colon
# SK-MEL-28 melanoma = test system: SK-MEL-28 melanoma
# SR leukemia = test system: SR leukemia
structure (smiles),measurement,setting,value
COc1ccc(COC(=O)NNC(=O)C2CSC(c3ccccc3)N2C(C)=O)cc1 (centres undefined),TGI,SF-268 CNS,> 100 µM
same,TGI,MOLT-4 leukemia,> 100 µM
same,TGI,LOX IMVI melanoma,> 100 µM
same,TGI,HOP-92 NSCLC,> 100 µM
same,TGI,MALME-3M melanoma,> 100 µM
same,TGI,UACC-257 melanoma,> 100 µM
same,TGI,BT-549 breast,> 100 µM
same,TGI,NCI/ADR-RES ovarian,> 100 µM
same,TGI,HT29 colon,> 100 µM
same,TGI,HCT-116 colon,> 100 µM
same,TGI,NCI-H226 lung,> 100 µM
same,TGI,HCT-15 colon,> 100 µM
same,TGI,M14 melanoma,> 100 µM
same,TGI,CCRF-CEM leukemia,> 100 µM
same,TGI,PC-3 prostate,> 100 µM
same,TGI,RPMI-8226 leukemia,> 100 µM
same,TGI,OVCAR-8 ovarian,> 100 µM
same,TGI,OVCAR-4 ovarian,> 100 µM
same,TGI,K-562 leukemia,> 100 µM
same,TGI,786-0 renal,> 100 µM
same,TGI,IGROV1 ovarian,> 100 µM
same,TGI,MDA-MB-435,> 100 µM
same,TGI,TK-10 renal,> 100 µM
same,TGI,HS 578T breast,> 100 µM
same,TGI,OVCAR-5 ovarian,> 100 µM
same,TGI,OVCAR-3 ovarian,> 100 µM
same,TGI,DU-145 prostate,> 100 µM
same,TGI,U251 CNS,> 100 µM
same,TGI,NCI-H23 lung,> 100 µM
same,TGI,SN12C renal,> 100 µM
same,TGI,ACHN renal,> 100 µM
same,TGI,SNB-75 CNS,> 100 µM
same,TGI,MDA-N,> 100 µM
same,TGI,NCI-H522 lung,> 100 µM
same,TGI,NCI-H460 lung,> 100 µM
same,TGI,HCC-2998 colon,> 100 µM
same,TGI,KM12 colon,> 100 µM
same,TGI,A498 renal,> 100 µM
same,TGI,UO-31 renal,> 100 µM
same,TGI,HOP-62 NSCLC,> 100 µM
same,TGI,SK-OV-3 ovarian,> 100 µM
same,TGI,SNB-19 CNS,> 100 µM
same,TGI,EKVX NSCLC,> 100 µM
same,TGI,A549 NSCLC,> 100 µM
same,TGI,CAKI-1 renal,> 100 µM
same,TGI,MCF7 breast,> 100 µM
same,TGI,SW-620 colon,> 100 µM
same,TGI,SK-MEL-5 melanoma,> 100 µM
same,TGI,SF-539 CNS,> 100 µM
same,TGI,SK-MEL-2 melanoma,> 100 µM
same,TGI,UACC-62 melanoma,> 100 µM
same,TGI,HL-60(TB) leukemia,> 100 µM
same,TGI,SF-295 CNS,> 100 µM
COc1cccc(NC(=O)c2c(SC)c(C#N)c(=O)n(N)c2N)c1,TGI,SF-268 CNS,> 100 µM
same,TGI,MOLT-4 leukemia,> 100 µM
same,TGI,LOX IMVI melanoma,> 100 µM
same,TGI,HOP-92 NSCLC,> 100 µM
same,TGI,MDA-MB-231 breast,> 100 µM
same,TGI,MALME-3M melanoma,> 100 µM
same,TGI,UACC-257 melanoma,> 100 µM
same,TGI,BT-549 breast,> 100 µM
same,TGI,NCI/ADR-RES ovarian,> 100 µM
same,TGI,HT29 colon,> 100 µM
same,TGI,HCT-116 colon,> 100 µM
same,TGI,NCI-H226 lung,> 100 µM
same,TGI,HCT-15 colon,> 100 µM
same,TGI,M14 melanoma,> 100 µM
same,TGI,CCRF-CEM leukemia,> 100 µM
same,TGI,RXF 393 renal,> 100 µM
same,TGI,PC-3 prostate,> 100 µM
same,TGI,OVCAR-8 ovarian,> 100 µM
same,TGI,OVCAR-4 ovarian,> 100 µM
same,TGI,COLO 205 colon,> 100 µM
same,TGI,K-562 leukemia,> 100 µM
same,TGI,786-0 renal,> 100 µM
same,TGI,IGROV1 ovarian,> 100 µM
same,TGI,MDA-MB-435,> 100 µM
same,TGI,TK-10 renal,> 100 µM
same,TGI,HS 578T breast,> 100 µM
same,TGI,OVCAR-5 ovarian,> 100 µM
same,TGI,U251 CNS,> 100 µM
same,TGI,SN12C renal,> 100 µM
same,TGI,ACHN renal,> 100 µM
same,TGI,SNB-75 CNS,81.3 µM
same,TGI,MDA-N,> 100 µM
same,TGI,NCI-H522 lung,> 100 µM
same,TGI,NCI-H460 lung,> 100 µM
same,TGI,HCC-2998 colon,> 100 µM
same,TGI,SK-MEL-28 melanoma,> 100 µM
same,TGI,KM12 colon,> 100 µM
same,TGI,A498 renal,> 100 µM
same,TGI,HOP-62 NSCLC,> 100 µM
same,TGI,SK-OV-3 ovarian,> 100 µM
same,TGI,SNB-19 CNS,98.6 µM
same,TGI,EKVX NSCLC,> 100 µM
same,TGI,A549 NSCLC,> 100 µM
same,TGI,CAKI-1 renal,> 100 µM
same,TGI,MCF7 breast,> 100 µM
same,TGI,SW-620 colon,> 100 µM
same,TGI,SK-MEL-5 melanoma,> 100 µM
same,TGI,SF-539 CNS,> 100 µM
same,TGI,SK-MEL-2 melanoma,> 100 µM
same,TGI,UACC-62 melanoma,> 100 µM
same,TGI,SF-295 CNS,> 100 µM
Cc1ccc(-n2c(C)n[nH]c2=O)cc1,TGI,SF-268 CNS,> 100 µM
same,TGI,MOLT-4 leukemia,> 100 µM
same,TGI,LOX IMVI melanoma,> 100 µM
same,TGI,HOP-92 NSCLC,> 100 µM
same,TGI,MDA-MB-231 breast,> 100 µM
same,TGI,UACC-257 melanoma,> 100 µM
same,TGI,BT-549 breast,> 100 µM
same,TGI,NCI/ADR-RES ovarian,> 100 µM
same,TGI,HT29 colon,> 100 µM
same,TGI,HCT-116 colon,> 100 µM
same,TGI,HCT-15 colon,> 100 µM
same,TGI,SR leukemia,> 100 µM
same,TGI,M14 melanoma,> 100 µM
same,TGI,CCRF-CEM leukemia,> 100 µM
same,TGI,RXF 393 renal,> 100 µM
same,TGI,PC-3 prostate,> 100 µM
same,TGI,RPMI-8226 leukemia,> 100 µM
same,TGI,OVCAR-8 ovarian,> 100 µM
same,TGI,COLO 205 colon,> 100 µM
same,TGI,K-562 leukemia,> 100 µM
same,TGI,786-0 renal,> 100 µM
same,TGI,IGROV1 ovarian,> 100 µM
same,TGI,MDA-MB-435,> 100 µM
same,TGI,TK-10 renal,> 100 µM
same,TGI,OVCAR-5 ovarian,> 100 µM
same,TGI,OVCAR-3 ovarian,> 100 µM
same,TGI,DU-145 prostate,> 100 µM
same,TGI,U251 CNS,> 100 µM
same,TGI,NCI-H23 lung,> 100 µM
same,TGI,SN12C renal,> 100 µM
same,TGI,ACHN renal,> 100 µM
same,TGI,SNB-75 CNS,> 100 µM
same,TGI,MDA-N,> 100 µM
same,TGI,NCI-H522 lung,> 100 µM
same,TGI,HCC-2998 colon,> 100 µM
same,TGI,SK-MEL-28 melanoma,> 100 µM
same,TGI,KM12 colon,> 100 µM
same,TGI,UO-31 renal,> 100 µM
same,TGI,HOP-62 NSCLC,> 100 µM
same,TGI,SK-OV-3 ovarian,> 100 µM
same,TGI,SNB-19 CNS,> 100 µM
same,TGI,EKVX NSCLC,> 100 µM
same,TGI,A549 NSCLC,> 100 µM
same,TGI,MCF7 breast,> 100 µM
same,TGI,SW-620 colon,> 100 µM
same,TGI,SK-MEL-5 melanoma,> 100 µM
same,TGI,SF-539 CNS,> 100 µM
same,TGI,SK-MEL-2 melanoma,> 100 µM
same,TGI,UACC-62 melanoma,> 100 µM
same,TGI,SF-295 CNS,> 100 µM
